Test results as given in patent US20100286145A1, “ISOPHTHALAMIDE DERIVATIVES INHIBITING BETA-SECRETASE ACTIVITY” (CoMentis, Inc., priority 2007, published 2010).
pIC50, pKi: −log10 of the molar value. Where two headings read alike, the source gives them in different places.

Key:
[1] = target: T1, memapsin 1 (Homo sapiens, UniProt Q9Y5Z0); experiment: Inhibition of memapsin 1 beta-secretase activity (substrate peptide ELDLAVEFWHDR, MALDI-TOF); type: biochemical
T1 sequence (Q9Y5Z0 63-518): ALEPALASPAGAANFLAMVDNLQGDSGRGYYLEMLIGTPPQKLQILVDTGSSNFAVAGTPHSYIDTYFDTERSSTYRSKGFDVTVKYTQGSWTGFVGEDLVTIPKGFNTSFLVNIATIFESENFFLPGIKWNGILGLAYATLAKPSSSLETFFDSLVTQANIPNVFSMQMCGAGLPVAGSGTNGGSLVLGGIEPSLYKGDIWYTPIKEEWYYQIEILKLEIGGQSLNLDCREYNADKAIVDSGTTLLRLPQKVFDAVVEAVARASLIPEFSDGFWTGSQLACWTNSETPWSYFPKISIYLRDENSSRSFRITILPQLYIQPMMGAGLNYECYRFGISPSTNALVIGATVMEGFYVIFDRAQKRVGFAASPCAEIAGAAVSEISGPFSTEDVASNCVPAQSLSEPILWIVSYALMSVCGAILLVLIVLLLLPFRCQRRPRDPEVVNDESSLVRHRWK

[2] = target: memapsin 2 (Homo sapiens, UniProt P56817); experiment: Inhibition of memapsin 2 beta-secretase activity (fluorogenic substrate FS-2); type: biochemical; conditions: memapsin 2, pH 4, 37° C.
memapsin 2, sequence (P56817 46-501): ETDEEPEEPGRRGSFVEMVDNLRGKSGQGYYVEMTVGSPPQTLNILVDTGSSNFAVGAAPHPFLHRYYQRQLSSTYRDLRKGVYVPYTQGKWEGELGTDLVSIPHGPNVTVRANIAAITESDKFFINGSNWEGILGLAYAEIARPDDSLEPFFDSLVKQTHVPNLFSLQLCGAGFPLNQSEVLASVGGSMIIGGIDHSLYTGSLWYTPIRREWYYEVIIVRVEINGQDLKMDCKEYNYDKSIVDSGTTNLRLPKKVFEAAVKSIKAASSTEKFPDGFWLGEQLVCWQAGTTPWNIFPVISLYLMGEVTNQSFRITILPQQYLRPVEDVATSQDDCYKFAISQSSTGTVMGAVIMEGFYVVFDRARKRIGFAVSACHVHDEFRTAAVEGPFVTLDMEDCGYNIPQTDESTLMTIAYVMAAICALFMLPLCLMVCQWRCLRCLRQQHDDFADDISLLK
How it was run: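 Kinetic fluorogenic assay: hydrolysis of the MCA/DNP-labelled APP Swedish-variant peptide FS-2 monitored as fluorescence rise at 37° C, pH 4, after 20 min enzyme–compound preincubation. Relative rates fitted with a tight-binding inhibitor model.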

[3] = test system: Aβ production in Chinese hamster ovary cells that over-express human APP695 with the London and Swedish mutations; experiment: Cellular Aβ IC50 determination (Aβ40 sandwich ELISA); type: cell-based; conditions: Cricetulus griseus
How it was run: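 Aβ40 in media quantified by sandwich ELISA, normalized to control incubations and fitted with a 4-parameter IC50 model. Compounds dosed to a final concentration near 4 μM (0.4% DMSO) on CHO cells expressing human APP695 (London and Swedish mutants) seeded at 10% confluency.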

[4] = target: cathepsin D (Homo sapiens, UniProt P07339); experiment: Inhibition of cathepsin D activity (substrate peptide ELDLAVEFWHDR, MALDI-TOF); type: biochemical
cathepsin D, sequence (P07339 65-412, species assumed): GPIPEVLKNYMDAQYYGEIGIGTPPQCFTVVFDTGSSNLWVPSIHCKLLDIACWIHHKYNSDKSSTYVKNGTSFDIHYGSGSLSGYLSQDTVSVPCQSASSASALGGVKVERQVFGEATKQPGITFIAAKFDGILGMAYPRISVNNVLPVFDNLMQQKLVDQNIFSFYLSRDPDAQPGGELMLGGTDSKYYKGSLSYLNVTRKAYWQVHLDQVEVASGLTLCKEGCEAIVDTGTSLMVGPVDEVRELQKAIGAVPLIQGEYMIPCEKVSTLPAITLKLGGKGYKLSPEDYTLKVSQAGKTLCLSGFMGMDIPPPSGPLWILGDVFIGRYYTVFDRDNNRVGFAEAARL

[5] = 20 minutes pre-incubation, read-out: M2Ki
[6] = cellular Aβ production, read-out: IC50

Row | SMILES | pKi ([1]; read-out: M1Ki) | pKi [2, 5] | pIC50 [3, 6] | pKi ([4]; read-out: CDKi) | pKi ([1]; read-out: M1 Ki) | pKi ([2]; read-out: M2 Ki) | pIC50 ([3]; CHO cells, 24 h incubation, Aβ40, read-out: IC50 (cellular Aβ production)) | pKi ([4]; read-out: CathD Ki)
1 | C[C@@H](NC(=O)c1cc(C(=O)N[C@@H](Cc2ccccc2)[C@H](O)CNCc2cncc(C(F)(F)F)c2)cc(N(C)S(C)(=O)=O)c1)c1ccccc1 [Compound 81, N1-((2S,3R)-3-hydroxy-1-phenyl-4-((5-(trifluoromethyl)pyridin-3-yl)methylamino)butan-2-yl)-5-(N-methylmethylsulfonamido)-N3-((R)-1-phenylethyl)isophthalamide] | > 6.52 | > 6.52 | > 6.00 | < 6.30 |  |  |  | 
2 | C[C@@H](NC(=O)c1cc(C(=O)N[C@@H](Cc2ccccc2)[C@H](O)CNCc2cccc(O)c2)cc(N(C)S(C)(=O)=O)c1)c1ccccc1 [Compound 71, N1-((2S,3R)-3-hydroxy-4-(3-hydroxybenzylamino)-1-phenylbutan-2-yl)-5-(N-methylmethylsulfonamido)-N3-((R)-1-phenylethyl)isophthalamide] | < 6.30 | > 6.52 | > 6.00 | < 6.30 |  |  |  | 
3 | C=Cc1cc(C(=O)N[C@@H](Cc2ccccc2)[C@H](O)CNCc2cccc(OC)c2)cc(C(=O)N(C)Cc2nc(C)cs2)c1 [Compound 21, N1-((2S,3R)-3-hydroxy-4-(3-methoxybenzylamino)-1-phenylbutan-2-yl)-N3-methyl-N3-((4-methylthiazol-2-yl)methyl)-5-vinylisophthalamide] | < 6.30 | > 6.52 | > 6.00 | > 6.52 |  |  |  | 
4 | Cc1cc(C(=O)N[C@@H](Cc2ccccc2)[C@H](O)CNCc2cncc(C(C)C)c2)cc(C(=O)N(C)Cc2nc(C)cs2)c1 [Compound 32, N1-((2S,3R)-3-hydroxy-4-((5-isopropylpyridin-3-yl)methylamino)-1-phenylbutan-2-yl)-N3,5-dimethyl-N3-((4-methylthiazol-2-yl)methyl)isophthalamide] | > 6.52 | > 6.52 | > 6.00 | > 6.52 |  |  |  | 
5 | C[C@@H](NC(=O)c1cc(C(=O)N[C@@H](Cc2ccccc2)[C@H](O)CNCc2cccc(Cl)c2)cc(N(C)S(C)(=O)=O)c1)c1ccccc1 [Compound 86, N1-((2S,3R)-4-(3-chlorobenzylamino)-3-hydroxy-1-phenylbutan-2-yl)-5-(N-methylmethylsulfonamido)-N3-((R)-1-phenylethyl)isophthalamide] | > 6.52 | > 6.52 | > 6.00 | 6.30 to 6.52 |  |  |  | 
6 | Cc1csc([C@@H](C)N(C)C(=O)c2cccc(C(=O)N[C@@H](Cc3ccccc3)[C@H](O)CNCc3cncc(C(C)C)c3)c2)n1 [Compound 82, N1-((2S,3R)-3-hydroxy-4-((5-isopropylpyridin-3-yl)methylamino)-1-phenylbutan-2-yl)-N3-methyl-N3-((R)-1-(4-methylthiazol-2-yl)ethyl)isophthalamide] | 6.30 to 6.52 | > 6.52 | > 6.00 | 6.30 to 6.52 |  |  |  | 
7 | COc1cc(CNC[C@@H](O)[C@H](Cc2ccccc2)NC(=O)c2cccc(C(=O)N(C)Cc3nc(C)cs3)c2)cc(OC)c1 [Compound 8, N1-((2S,3R)-4-(3,5-dimethoxybenzylamino)-3-hydroxy-1-phenylbutan-2-yl)-N3-methyl-N3-((4-methylthiazol-2-yl)methyl)isophthalamide] | 6.30 to 6.52 | > 6.52 | > 6.00 | > 6.52 |  |  |  | 
8 | Cc1cc(C(=O)N[C@@H](Cc2ccccc2)[C@H](O)CNCc2cncc(C(C)C)c2)cc(C(=O)N(Cc2nc(C)cs2)C2CC2)c1 [Compound 41, N1-cyclopropyl-N3-((2S,3R)-3-hydroxy-4-((5-isopropylpyridin-3-yl)methylamino)-1-phenylbutan-2-yl)-5-methyl-N1-((4-methylthiazol-2-yl)methyl)isophthalamide] | > 6.52 | > 6.52 | > 6.00 | > 6.52 |  |  |  | 
9 | COC(=O)c1cc(C(=O)N[C@@H](Cc2ccccc2)[C@H](O)CNCc2cccc(OC)c2)cc(C(=O)N(C)Cc2nc(C)cs2)c1 [Compound 17, methyl 3-((2S,3R)-3-hydroxy-4-(3-methoxybenzylamino)-1-phenylbutan-2-ylcarbamoyl)-5-(methyl((4-methylthiazol-2-yl)methyl)carbamoyl)benzoate] | < 6.30 | > 6.52 | > 6.00 | > 6.52 |  |  |  | 

Other lines, results leading:

Row | pKi ([1]; read-out: M1Ki) | pKi [2, 5] | pIC50 [3, 6] | pKi ([4]; read-out: CDKi) | pKi ([1]; read-out: M1 Ki) | pKi ([2]; read-out: M2 Ki) | pIC50 ([3]; CHO cells, 24 h incubation, Aβ40, read-out: IC50 (cellular Aβ production)) | pKi ([4]; read-out: CathD Ki) | SMILES
10 | > 6.52 | > 6.52 | > 6.00 | > 6.52 |  |  |  |  | C[C@@H](NC(=O)c1cc(C(=O)N[C@@H](Cc2ccccc2)[C@H](O)CNCc2cncc(C(C)(C)F)c2)cc(N(C)S(C)(=O)=O)c1)c1ccccc1 [Compound 89, N1-((2S,3R)-4-((5-(2-fluoropropan-2-yl)pyridin-3-yl)methylamino)-3-hydroxy-1-phenylbutan-2-yl)-5-(N-methylmethylsulfonamido)-N3-((R)-1-phenylethyl)isophthalamide]
11 | 6.30 to 6.52 | > 6.52 | > 6.00 | > 6.52 |  |  |  |  | Cc1csc(CN(C(=O)c2cccc(C(=O)N[C@@H](Cc3ccccc3)[C@H](O)CNCc3cccc(C(F)(F)F)c3)c2)C2CC2)n1 [Compound 29, N1-cyclopropyl-N3-((2S,3R)-3-hydroxy-1-phenyl-4-(3-(trifluoromethyl)benzylamino)butan-2-yl)-N1-((4-methylthiazol-2-yl)methyl)isophthalamide]
12 | < 6.30 | > 6.52 | > 6.00 | > 6.52 |  |  |  |  | Cc1csc(CN(C)C(=O)c2cccc(C(=O)N[C@@H](Cc3ccccc3)[C@H](O)CNCc3cc(C(C)C)cc(N(C)C)c3)c2)n1 [Compound 90, N1-((2S,3R)-4-(3-(dimethylamino)-5-isopropylbenzylamino)-3-hydroxy-1-phenylbutan-2-yl)-N3-methyl-N3-((4-methylthiazol-2-yl)methyl)isophthalamide]
13 | 6.30 to 6.52 | > 6.52 | > 6.00 | > 6.52 |  |  |  |  | COc1cccc(CNC[C@@H](O)[C@H](Cc2ccccc2)NC(=O)c2cc(OC)cc(C(=O)N(C)Cc3nc(C)cs3)c2)c1 [Compound 3, N1-((2S,3R)-3-hydroxy-4-(3-methoxybenzylamino)-1-phenylbutan-2-yl)-5-methoxy-N3-methyl-N3-((4-methylthiazol-2-yl)methyl)isophthalamide]
14 | < 6.30 | > 6.52 | 5.30 to 6.00 | < 6.30 |  |  |  |  | COc1cc(CNC[C@@H](O)[C@H](Cc2ccccc2)NC(=O)c2cccc(C(=O)N(C)Cc3nc(C)cs3)c2)cc(C(=O)O)c1 [Compound 72, 3-(((2R,3S)-2-hydroxy-3-(3-(methyl((4-methylthiazol-2-yl)methyl)carbamoyl)benzamido)-4-phenylbutylamino)methyl)-5-methoxybenzoic acid]
15 | < 6.30 | > 6.52 | > 6.00 | 6.30 to 6.52 |  |  |  |  | COc1cccc(CNC[C@@H](O)[C@H](Cc2ccccc2)NC(=O)c2cc(C(=O)N(C)Cc3nc(C)cs3)cc(C3=NCCO3)c2)c1 [Compound 46, 5-(4,5-dihydrooxazol-2-yl)-N1-((2S,3R)-3-hydroxy-4-(3-methoxybenzylamino)-1-phenylbutan-2-yl)-N3-methyl-N3-((4-methylthiazol-2-yl)methyl)isophthalamide]
16 | 6.30 to 6.52 | > 6.52 | > 6.00 | > 6.52 |  |  |  |  | Cc1csc(CN(C)C(=O)c2cccc(C(=O)N[C@@H](Cc3ccccc3)[C@H](O)CNCc3ccnc(C(C)C)c3)c2)n1 [Compound 33, N1-((2S,3R)-3-hydroxy-4-((2-isopropylpyridin-4-yl)methylamino)-1-phenylbutan-2-yl)-N3-methyl-N3-((4-methylthiazol-2-yl)methyl)isophthalamide]
17 |  |  |  |  | 6.58 | 7.77 | 8.22 | 7.49 | Cc1cc(C(=O)N[C@@H](Cc2ccccc2)[C@H](O)CNCc2cncc(C(C)C)c2)cc(C(=O)N(C)Cc2nc(C)cs2)c1 [N1-((2S,3R)-3-hydroxy-4-((5-isopropylpyridin-3-yl)methylamino)-1-phenylbutan-2-yl)-N3,5-dimethyl-N3-((4-methylthiazol-2-yl)methyl)isophthalamide]
18 | > 6.52 | > 6.52 | > 6.00 | > 6.52 |  |  |  |  | COc1cc(C(=O)N[C@@H](Cc2ccccc2)[C@H](O)CNCc2cncc(C(C)C)c2)cc(C(=O)N(C)Cc2nc(C)cs2)c1 [Compound 40, N1-((2S,3R)-3-hydroxy-4-((5-isopropylpyridin-3-yl)methylamino)-1-phenylbutan-2-yl)-5-methoxy-N3-methyl-N3-((4-methylthiazol-2-yl)methyl)isophthalamide]
